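Dose response: 5 concentrations. Exposure: 48 h. Format: 96-well plates. Endpoint: linear interpolation; highest concentration if not reached. TGI marks complete inhibition of growth.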
Columns and labels:
Assay in all cases: growth of human tumour cells (NCI), 48 h
TK-10 renal = test system: TK-10 renal
SNB-75 CNS = test system: SNB-75 CNS
NCI-H460 lung = test system: NCI-H460 lung
UACC-62 melanoma = test system: UACC-62 melanoma
HT29 colon = test system: HT29 colon
EKVX NSCLC = test system: EKVX NSCLC
SK-MEL-2 melanoma = test system: SK-MEL-2 melanoma
SF-268 CNS = test system: SF-268 CNS
MDA-MB-231 breast = test system: MDA-MB-231 breast
MOLT-4 leukemia = test system: MOLT-4 leukemia
HCC-2998 colon = test system: HCC-2998 colon
U251 CNS = test system: U251 CNS
OVCAR-3 ovarian = test system: OVCAR-3 ovarian
LOX IMVI melanoma = test system: LOX IMVI melanoma
HOP-62 NSCLC = test system: HOP-62 NSCLC
NCI-H522 lung = test system: NCI-H522 lung
SK-MEL-5 melanoma = test system: SK-MEL-5 melanoma
ACHN renal = test system: ACHN renal
HCT-116 colon = test system: HCT-116 colon
NCI-H226 lung = test system: NCI-H226 lung
OVCAR-5 ovarian = test system: OVCAR-5 ovarian
SK-MEL-28 melanoma = test system: SK-MEL-28 melanoma
HL-60(TB) leukemia = test system: HL-60(TB) leukemia
OVCAR-4 ovarian = test system: OVCAR-4 ovarian
SR leukemia = test system: SR leukemia
MALME-3M melanoma = test system: MALME-3M melanoma
PC-3 prostate = test system: PC-3 prostate
DU-145 prostate = test system: DU-145 prostate
MDA-N = test system: MDA-N
K-562 leukemia = test system: K-562 leukemia
T-47D breast = test system: T-47D breast
UACC-257 melanoma = test system: UACC-257 melanoma
KM12 colon = test system: KM12 colon
CAKI-1 renal = test system: CAKI-1 renal
IGROV1 ovarian = test system: IGROV1 ovarian
NCI-H23 lung = test system: NCI-H23 lung
RPMI-8226 leukemia = test system: RPMI-8226 leukemia
UO-31 renal = test system: UO-31 renal
786-0 renal = test system: 786-0 renal
CCRF-CEM leukemia = test system: CCRF-CEM leukemia
HCT-15 colon = test system: HCT-15 colon
HS 578T breast = test system: HS 578T breast
OVCAR-8 ovarian = test system: OVCAR-8 ovarian
M14 melanoma = test system: M14 melanoma
MDA-MB-435 = test system: MDA-MB-435
BT-549 breast = test system: BT-549 breast
MCF7 breast = test system: MCF7 breast
SF-295 CNS = test system: SF-295 CNS
HOP-92 NSCLC = test system: HOP-92 NSCLC
A549 NSCLC = test system: A549 NSCLC
COLO 205 colon = test system: COLO 205 colon
NCI/ADR-RES ovarian = test system: NCI/ADR-RES ovarian
SK-OV-3 ovarian = test system: SK-OV-3 ovarian
RXF 393 renal = test system: RXF 393 renal
SNB-19 CNS = test system: SNB-19 CNS
SN12C renal = test system: SN12C renal
SW-620 colon = test system: SW-620 colon
SF-539 CNS = test system: SF-539 CNS

Oc1ccc2c3c1OC1c4[nH]ncc4C[C@H]4[C@@H](C2)N(CC2CC2)CC[C@]314 (stereo not given in full)
TGI (TK-10 renal): > 100 µM | TGI (SNB-75 CNS): > 100 µM | TGI (NCI-H460 lung): > 100 µM | TGI (UACC-62 melanoma): > 100 µM | TGI (HT29 colon): > 100 µM | TGI (EKVX NSCLC): > 100 µM | TGI (SK-MEL-2 melanoma): > 100 µM | TGI (SF-268 CNS): > 100 µM | TGI (MDA-MB-231 breast): > 100 µM | TGI (MOLT-4 leukemia): > 100 µM | TGI (HCC-2998 colon): > 100 µM | TGI (U251 CNS): > 100 µM | TGI (OVCAR-3 ovarian): > 100 µM | TGI (LOX IMVI melanoma): > 100 µM | TGI (HOP-62 NSCLC): > 100 µM | TGI (NCI-H522 lung): > 100 µM | TGI (SK-MEL-5 melanoma): > 100 µM | TGI (ACHN renal): > 100 µM | TGI (HCT-116 colon): > 100 µM | TGI (NCI-H226 lung): > 100 µM | TGI (OVCAR-5 ovarian): > 100 µM | TGI (SK-MEL-28 melanoma): > 100 µM | TGI (HL-60(TB) leukemia): > 100 µM | TGI (OVCAR-4 ovarian): > 100 µM | TGI (SR leukemia): > 100 µM | TGI (MALME-3M melanoma): > 100 µM | TGI (PC-3 prostate): > 100 µM | TGI (DU-145 prostate): > 100 µM | TGI (MDA-N): > 100 µM | TGI (K-562 leukemia): > 100 µM | TGI (T-47D breast): > 100 µM | TGI (UACC-257 melanoma): > 100 µM | TGI (KM12 colon): > 100 µM | TGI (CAKI-1 renal): > 100 µM | TGI (IGROV1 ovarian): > 100 µM | TGI (NCI-H23 lung): > 100 µM | TGI (RPMI-8226 leukemia): > 100 µM | TGI (UO-31 renal): > 100 µM | TGI (786-0 renal): > 100 µM | TGI (CCRF-CEM leukemia): > 100 µM | TGI (HCT-15 colon): > 100 µM | TGI (HS 578T breast): > 100 µM | TGI (OVCAR-8 ovarian): > 100 µM | TGI (M14 melanoma): > 100 µM | TGI (MDA-MB-435): > 100 µM | TGI (BT-549 breast): > 100 µM | TGI (MCF7 breast): > 100 µM | TGI (SF-295 CNS): > 100 µM | TGI (HOP-92 NSCLC): > 100 µM | TGI (A549 NSCLC): > 100 µM | TGI (COLO 205 colon): > 100 µM | TGI (NCI/ADR-RES ovarian): > 100 µM | TGI (SK-OV-3 ovarian): > 100 µM | TGI (RXF 393 renal): > 100 µM | TGI (SNB-19 CNS): > 100 µM | TGI (SN12C renal): > 100 µM

O=[N+]([O-])c1cccc(-c2ncc3c(n2)-c2ccccc2C3)c1
TGI (TK-10 renal): > 100 µM | TGI (SNB-75 CNS): > 100 µM | TGI (NCI-H460 lung): > 100 µM | TGI (UACC-62 melanoma): > 100 µM | TGI (HT29 colon): > 100 µM | TGI (EKVX NSCLC): > 100 µM | TGI (SK-MEL-2 melanoma): > 100 µM | TGI (SF-268 CNS): > 100 µM | TGI (MDA-MB-231 breast): > 100 µM | TGI (MOLT-4 leukemia): > 100 µM | TGI (U251 CNS): > 100 µM | TGI (NCI-H522 lung): > 100 µM | TGI (SK-MEL-5 melanoma): > 100 µM | TGI (ACHN renal): > 100 µM | TGI (SW-620 colon): > 100 µM | TGI (HCT-116 colon): > 100 µM | TGI (NCI-H226 lung): > 100 µM | TGI (OVCAR-5 ovarian): > 100 µM | TGI (SK-MEL-28 melanoma): > 100 µM | TGI (HL-60(TB) leukemia): > 100 µM | TGI (OVCAR-4 ovarian): > 100 µM | TGI (SR leukemia): > 100 µM | TGI (MALME-3M melanoma): > 100 µM | TGI (PC-3 prostate): > 100 µM | TGI (DU-145 prostate): > 100 µM | TGI (MDA-N): > 100 µM | TGI (K-562 leukemia): > 100 µM | TGI (T-47D breast): > 100 µM | TGI (UACC-257 melanoma): > 100 µM | TGI (KM12 colon): > 100 µM | TGI (CAKI-1 renal): > 100 µM | TGI (IGROV1 ovarian): > 100 µM | TGI (NCI-H23 lung): > 100 µM | TGI (RPMI-8226 leukemia): > 100 µM | TGI (UO-31 renal): > 100 µM | TGI (786-0 renal): > 100 µM | TGI (CCRF-CEM leukemia): > 100 µM | TGI (HCT-15 colon): > 100 µM | TGI (HS 578T breast): > 100 µM | TGI (OVCAR-8 ovarian): > 100 µM | TGI (M14 melanoma): > 100 µM | TGI (MDA-MB-435): > 100 µM | TGI (BT-549 breast): > 100 µM | TGI (MCF7 breast): > 100 µM | TGI (SF-295 CNS): > 100 µM | TGI (HOP-92 NSCLC): > 100 µM | TGI (A549 NSCLC): > 100 µM | TGI (COLO 205 colon): > 100 µM | TGI (NCI/ADR-RES ovarian): > 100 µM | TGI (SK-OV-3 ovarian): > 100 µM | TGI (SF-539 CNS): > 100 µM | TGI (RXF 393 renal): > 100 µM | TGI (SNB-19 CNS): 72.4 µM | TGI (SN12C renal): > 100 µM

Reference: PubChem BioAssay (NCI)
